Residues, ends and D or L forms follow the SMILES beside them.
How the values were obtained:
[1] = test system: human red blood cells (hRBCs); assay: Hemolytic activity; format: cell-based; details: 10% hRBCs in PBS, 1 h at 37°C, absorbance 405 nm; 100% = 1% Triton X-100; triplicates
Protocol: The hemolytic activities of peptides were determined by hemolysis against human red blood cells (hRBCs). Human blood was obtained in EDTA-containing tube and was centrifuged at 450 g for 10 min. The pellet was washed three times with PBS buffer, and a solution of 10% hRBCs was prepared. hRBCs solution was mixed with serial dilutions of peptides in PBS buffer, and the reaction mixtures were incubated for 1 h at 37°C. After centrifugation at 450 g for 10 min, the percentage of hemolysis was determined by measuring the absorbance at the wavelength of 405 nm of the supernatant. Blank and 100% hemolysis were determined in PBS buffer and in the presence of 1% Triton X-100, respectively.

[2] = test system: K. pneumonia (ATCC 13884); format: cell-based, Klebsiella pneumoniae; details: 3 h at 37°C in phosphate buffer pH 7.2; triplicate
P. aeruginosa = assay: Effect of added LPS on bactericidal activity; format: cell-based, Pseudomonas aeruginosa; details: 2 µM peptide (1×MBC), LPS from P. aeruginosa or E. coli at 50 µg/ml, 3 hours, triplicates
Protocol: To determine whether LPS of Gram-negative bacteria could serve as a potential target of HBc147-183, LPS (0.05 to 50 µg/ml) from either P. aeruginosa or E. coli (Sigma) were incubated with both P. aeruginosa and 2 µM HBc147-183 for three hours, respectively. […] In addition, HBc147-183 preferentially bound to the LPS from P. aeruginosa, rather than that from E. coli. However, the addition of anti-LPS antibody (Genetex Co.) cannot sufficiently neutralize the bactericidal activity of HBc147-183 (Figure 5). […] Alternatively, HBc147-183 and the anti-LPS polyclonal antibody used here could bind predominantly to two different epitopes on the LPS.
Figure 5 Dose response effects of LPS and LPS antibody (triangle) on the bactericidal activity of HBc147-183. LPS from P. aeruginosa (square) and E. coli (diamond), and LPS antibody (triangle) were mixed with P. aeruginosa and HBc147-183 (1×MBC) for 3 hours. The bacteria were then plated on MH agar for the measurement of viability. Samples were measured in triplicates.

[3] = test system: Klebsiella pneumoniae Xen39; assay: IVIS imaging of infected mice; format: in vivo; details: 10 mg/kg at 1 hour, imaged 4 hours post-inoculation; 10^7 cfu/mouse; n = 5; P<0.01 vs PBS
E. coli (ATCC 25922) = format: cell-based, Escherichia coli; details: 3 h at 37°C in phosphate buffer pH 7.2; triplicate
In short: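 Mid-log cultures grown in Mueller–Hinton broth were diluted to 10^6 CFU/ml in 10 mM sodium phosphate, 50 mM NaCl, pH 7.2, mixed with serially diluted HBc ARD peptides, and held 3 hours at 37°C without shaking. Survivors were plated on Mueller–Hinton agar overnight at 37°C to define MBC; triplicates.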

HepG2 cells = assay: Peptide uptake into mammalian cells; format: cell-based, human; details: data not shown
Protocol: (§1) To set up CFSE cell proliferation assay, 293 cells (human kidney origin) and Vero cells (monkey kidney origin) were resuspended in PBS to a final concentration of 10^6 cells/ml, before incubation with 10 µM CFSE dye (CellTrace CFSE cell proliferation kit, Invitrogen) at 37°C for 10 min. To quench the staining, ice-old culture media were then added and incubated on ice for 5 min. Labeled cells were then pelleted and washed three times by fresh medium containing 10% FBS before seeding into six well plates at a density of 3.3×10^5cells/well. After 20 h, the medium was removed and incubated with fresh medium containing 5, 25 and 100 µM HBc 147-183 for one hour (FITC-labeled ARD peptide had been largely internalized in 10 minutes after the addition of ARD peptides to the medium of HepG2 cells). Forty-eight hours later, cells were harvested and analyzed by flow cytometry (FACSCanto, BD Bioscience).

pSUPER plasmid DNA = assay: Gel retardation assay (DNA binding); details: 30 minutes at 37°C, 1% agarose gel; N/P = peptide amino nitrogen / DNA phosphate
Protocol: The proportion between amino nitrogen (NH3 ^+) of HBc147-183 and phosphate (PO4 ^−) of DNA was defined as N/P ratio [35]. Briefly, HBc147-183 was incubated with pSUPER plasmid DNA at different N/P ratio (0, 0.2, 0.4, 0.6, 0.8, 1, 2, 3 and 4) for 30 minutes at 37°C. The mobility of pSUPER plasmid DNA was analyzed by electrophoresis on 1% agarose gel.

Vero cells = assay: CFSE cell proliferation assay; format: cell-based, monkey; details: 5, 25 and 100 µM for 1 hour; flow cytometry
Protocol: as §1

CC(C)[C@H](NC(=O)[C@@H](NC(=O)[C@@H](N)[C@@H](C)O)C(C)C)C(=O)N[C@@H](CCCNC(=N)N)C(=O)N[C@@H](CCCNC(=N)N)C(=O)N[C@@H](CCCNC(=N)N)C(=O)NCC(=O)N[C@@H](CCCNC(=N)N)C(=O)N[C@@H](CO)C(=O)N1CCC[C@H]1C(=O)N[C@@H](CCCNC(=N)N)C(=O)N[C@@H](CCCNC(=N)N)C(=O)N[C@@H](CCCNC(=N)N)C(=O)N[C@H](C(=O)N1CCC[C@H]1C(=O)N[C@@H](CO)C(=O)N1CCC[C@H]1C(=O)N[C@@H](CCCNC(=N)N)C(=O)N[C@@H](CCCNC(=N)N)C(=O)N[C@@H](CCCNC(=N)N)C(=O)N[C@@H](CCCNC(=N)N)C(=O)N[C@@H](CO)C(=O)N[C@@H](CCC(N)=O)C(=O)N[C@@H](CO)C(=O)N1CCC[C@H]1C(=O)N[C@@H](CCCNC(=N)N)C(=O)N[C@@H](CCCNC(=N)N)C(=O)N[C@@H](CCCNC(=N)N)C(=O)N[C@@H](CCCNC(=N)N)C(=O)N[C@@H](CO)C(=O)N[C@@H](CCC(N)=O)C(=O)N[C@@H](CO)C(=O)N[C@@H](CCCNC(=N)N)C(=O)N[C@@H](CCC(=O)O)C(=O)N[C@@H](CO)C(=O)N[C@@H](CCC(N)=O)C(=O)N[C@@H](CS)C(=O)O)[C@@H](C)O [HBc147-183] (H-TVVRRRGRSPRRRTPSPRRRRSQSPRRRRSQSRESQC-OH; N-terminus and C-terminus assumed)
Hemolysis [1]: no detectable hemolysis | Antimicrobial activity, MBC [2]: 9.18 µg/mL | Bactericidal activity in the presence of LPS (P. aeruginosa): significantly reduced | Bioluminescence of infected mice [3]: very weak | Antimicrobial activity, MBC (E. coli (ATCC 25922)): 18.36 µg/mL | Penetration through the cell membrane (HepG2 cells): can penetrate through the cell membrane | N/P ratio at which plasmid DNA was completely retarded (pSUPER plasmid DNA): 1 | Effect on cell proliferation (CFSE intensity, day 3 vs mock) (Vero cells): no significant effect

Source: PMC3681751, “Identification of a Novel Antimicrobial Peptide from Human Hepatitis B Virus Core Protein Arginine-Rich Domain (ARD)” (PLoS Pathogens, 2013)
